This series in a line: Chemical stability of the compound at pH 7 after 30 days. Format: physicochemical. The conditions noted are these: buffer, pH 7, 720 h.

Molecules are shown by their SMILES.

Regarding `C[C@@H](c1ncncc1F)[C@](O)(Cn1cncn1)c1ccc(F)cc1F` [VORICONAZOLE], the Stability result is given as “Stable”.

These data come from ChEMBL document CHEMBL1629586, “Preparation and stability of voriconazole eye drop solution” (Antimicrob Agents Chemother, 2009).
